What was measured:
PLD = conditions: read-out: IC50 (PLD, indirect inhibitor); cited from earlier work
rat PLD1.d311 = biological target: T1, rat PLD1.d311 (Rattus norvegicus, UniProt P70496); conditions: no noticeable difference between the two
T1 sequence (P70496 312-1036 isoform P70496-2): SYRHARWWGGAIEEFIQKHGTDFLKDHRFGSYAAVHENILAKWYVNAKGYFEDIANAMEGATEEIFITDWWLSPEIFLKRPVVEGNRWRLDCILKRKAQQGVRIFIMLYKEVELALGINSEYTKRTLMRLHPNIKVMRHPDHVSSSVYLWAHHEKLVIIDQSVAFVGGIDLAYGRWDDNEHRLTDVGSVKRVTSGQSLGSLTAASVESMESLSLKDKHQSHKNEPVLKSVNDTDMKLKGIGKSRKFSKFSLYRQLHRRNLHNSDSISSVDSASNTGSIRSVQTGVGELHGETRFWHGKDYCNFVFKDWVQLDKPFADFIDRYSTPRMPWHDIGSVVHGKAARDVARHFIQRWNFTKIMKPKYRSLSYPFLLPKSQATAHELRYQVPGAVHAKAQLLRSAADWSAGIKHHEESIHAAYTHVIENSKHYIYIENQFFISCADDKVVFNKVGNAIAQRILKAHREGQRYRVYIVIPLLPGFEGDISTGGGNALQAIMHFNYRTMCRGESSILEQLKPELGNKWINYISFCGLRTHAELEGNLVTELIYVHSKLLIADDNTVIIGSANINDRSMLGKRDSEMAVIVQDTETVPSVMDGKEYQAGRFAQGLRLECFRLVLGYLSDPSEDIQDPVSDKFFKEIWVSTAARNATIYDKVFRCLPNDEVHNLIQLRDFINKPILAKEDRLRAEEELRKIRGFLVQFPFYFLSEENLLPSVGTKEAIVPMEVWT

[1] = tested on: non-HKD-containing bacterial (Streptomyces chromofuscus) PLD; conditions: read-out: IC50 S. chromofuscus PLD; in vitro; cited from earlier work
human PLD1b = conditions: read-out: IC50 human PLD1b; in vitro; cited from earlier work
[2] = tested on: MDA-231 human breast cancer cell line; experiment: Transwell matrigel invasion assay, MDA-231; format: cell-based; conditions: MDA-231, 20 µM, 48 h
[3] = tested on: 4T1 mouse metastatic breast cancer line; experiment: Transwell matrigel invasion assay, 4T1; format: cell-based; conditions: 48 h
PMT cells = experiment: Transwell matrigel invasion assay, PMT; format: cell-based, mouse; conditions: 20 µM, 48 h
[4] = biological target: PLD2 (HEK293-gfpPLD2 cells) (Homo sapiens, UniProt O14939); experiment: Endogenous PLD activity assay; format: cell-based
PLD2 (HEK293-gfpPLD2 cells), sequence (O14939 whole entry): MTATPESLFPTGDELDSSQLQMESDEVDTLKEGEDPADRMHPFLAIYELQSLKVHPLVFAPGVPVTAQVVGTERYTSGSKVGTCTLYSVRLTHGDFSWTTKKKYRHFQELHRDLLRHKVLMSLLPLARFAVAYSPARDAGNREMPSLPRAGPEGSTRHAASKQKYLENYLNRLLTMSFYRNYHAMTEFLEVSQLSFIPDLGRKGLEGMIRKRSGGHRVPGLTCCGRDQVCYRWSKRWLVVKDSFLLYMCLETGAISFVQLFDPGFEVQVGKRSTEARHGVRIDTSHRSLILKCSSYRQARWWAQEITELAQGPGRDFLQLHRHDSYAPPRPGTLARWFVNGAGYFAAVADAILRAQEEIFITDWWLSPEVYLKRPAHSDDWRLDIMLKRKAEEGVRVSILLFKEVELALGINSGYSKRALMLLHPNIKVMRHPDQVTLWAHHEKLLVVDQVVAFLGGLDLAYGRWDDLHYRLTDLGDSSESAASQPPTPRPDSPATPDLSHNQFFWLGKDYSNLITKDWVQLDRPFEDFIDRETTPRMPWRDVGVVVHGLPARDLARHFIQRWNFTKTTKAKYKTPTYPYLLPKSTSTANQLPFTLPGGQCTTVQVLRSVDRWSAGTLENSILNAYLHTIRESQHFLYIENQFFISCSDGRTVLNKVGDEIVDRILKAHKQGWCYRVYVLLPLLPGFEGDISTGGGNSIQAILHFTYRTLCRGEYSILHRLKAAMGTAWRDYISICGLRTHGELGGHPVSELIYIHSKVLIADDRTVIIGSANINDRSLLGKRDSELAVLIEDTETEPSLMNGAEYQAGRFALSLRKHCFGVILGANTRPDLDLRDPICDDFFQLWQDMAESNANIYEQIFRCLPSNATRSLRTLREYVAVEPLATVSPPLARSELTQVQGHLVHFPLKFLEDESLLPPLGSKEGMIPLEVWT

SMILES	Invasive migration in transwell invasion assay [2]	Invasive migration in transwell invasion assay ([3]; 4T1, 20 µM)	Invasive migration in transwell invasion assay (PMT cells)	further results
Oc1ccc(/C=C/c2cc(O)cc(O)c2)cc1 [resveratrol]	–	–	–	IC50 (PLD): > 60 µM
O=C(NCCN1CCC(n2c(=O)[nH]c3ccccc32)CC1)c1cc(Br)c(Br)o1 [Compound 64]	–	–	–	Inhibition of basal and myr-Arf-1-stimulated activity of purified PLD1.d311 (rat PLD1.d311): directly inhibited
CC(C)=CCC/C(C)=C/CC/C(C)=C/C1C(COP(=O)(O)OP(=O)(O)O)C1(C)CC/C=C(\C)CCC=C(C)C (stereo in doubt) [presqualene diphosphate]	–	–	–	IC50 [1]: 0.1 µM; IC50 (human PLD1b): > 1 µM
O=C(NCCN1CCC(n2c(=O)[nH]c3ccccc32)CC1)c1ccc2ccccc2c1 [Compound 56]	significantly (P < 0.05) decrease	significantly (P < 0.05) decrease	significantly (P < 0.05) decrease	–
O=C(NCCN1CCC2(CC1)C(=O)NCN2c1ccccc1)c1ccc(C(F)(F)F)cc1 [Compound 70]	–	–	–	IC50 [4]: > 20 µM
O=C(NCCN1CCC2(CC1)C(=O)NCN2c1ccccc1)c1ccc2ccccc2c1 [Compound 72]	significantly decreased cell migration	significantly decreased cell migration	significantly decreased cell migration	–
O=C(NCCN1CCC(n2c(=O)[nH]c3ccccc32)CC1)[C@@H]1C[C@H]1c1ccccc1 [Compound 58]	significantly decreased cell migration	significantly decreased cell migration	significantly decreased cell migration	Invasive migration in transwell invasion assay ([3]; 4T1, 200 nM): significantly decreased cell migration
C[C@@H](CN1CCC(n2c(=O)[nH]c3cc(Cl)ccc32)CC1)NC(=O)c1ccc2ccccc2c1 [Compound 69]	significantly decreased cell migration	significantly decreased cell migration	significantly decreased cell migration	Invasive migration in transwell invasion assay ([3]; 4T1, 200 nM): significantly decreased cell migration
O=C(c1ccc(Cl)cc1)N(CCN1CCC2(CC1)C(=O)NCN2c1ccccc1)C(=O)c1ccc(Cl)cc1 [Compound 82]	significantly decreased cell migration	significantly decreased cell migration	significantly decreased cell migration	–
